Assays:
Assay type in all cases: in vivo
[1] = system: Amaranthus palmeri (AMAPA); test: Glasshouse herbicidal test, pre- and post-emergence (Table B1); details: 130 g/h, evaluated after 13 days; for percentage damage caused to the plant, PRE Application AMAPA: pre-emergence
Procedure: (§1) Seeds of a variety of test species are sown in standard soil in pots (Lolium perenne (LOLPE), Amaranthus retoflexus (AMARE), Amaranthus palmeri (AMAPA), Ablution theophrasti (ABUTH), Setaria faberi (SETFA), Echinochloa crus-galli (ECHCG), Ipomoea hederacea (IPOHE)). After cultivation for one day (pre-emergence) or after 8 days cultivation (post-emergence) under controlled conditions in a glasshouse (at 24/16° C., day/night; 14 hours light; 65% humidity), the plants are sprayed with an aqueous spray solution derived from the formulation of the technical active ingredient in acetone/water (50:50) solution containing 0.5% Tween 20 (polyoxyethelyene sorbitan monolaurate, CAS RN 9005-64-5). Compounds are applied at 130 g/h unless otherwise indicated. The test plants are then grown in a glasshouse under controlled conditions in a glasshouse (at 24/16° C., day/night; 14 hours light; 65% humidity) and watered twice daily. After 13 days for pre and post-emergence, the test is evaluated for the percentage damage caused to the plant. The biological activities are shown in the following table on a five-point scale (5=80-100%; 4=60-79%; 3=40-59%; 2=20-39%; 1=0-19%).

[2] = system: Amaranthus retoflexus (AMARE); test: as above; details: 130 g/h, evaluated after 13 days; for percentage damage caused to the plant, POST Application AMARE: post-emergence; for percentage damage caused to the plant, PRE Application AMARE: pre-emergence
Procedure: as §1

[3] = system: Echinochloa crus-galli (ECHCG); test: as above; details: 130 g/h, evaluated after 13 days; for percentage damage caused to the plant, POST Application ECHCG: post-emergence; for percentage damage caused to the plant, PRE Application ECHCG: pre-emergence
Procedure: as §1

[4] = system: Ipomoea hederacea (IPOHE); test: as above; details: 130 g/h, evaluated after 13 days; for percentage damage caused to the plant, POST Application IPOHE: post-emergence; for percentage damage caused to the plant, PRE Application IPOHE: pre-emergence
Procedure: as §1

[5] = system: Setaria faberi (SETFA); test: as above; details: 130 g/h, evaluated after 13 days; for percentage damage caused to the plant, POST Application SETFA: post-emergence; for percentage damage caused to the plant, PRE Application SETFA: pre-emergence
Procedure: as §1

[6] = system: AMARE (Amaranthus retoflexus); test: Comparative test, pre-emergence (Table B2); details: after 14 days
[7] = system: ECHCG (Echinochloa crus-galli); test: Comparative test, pre-emergence (Table B2); details: after 14 days
[8] = system: SETFA (Setaria faberi); test: Comparative test, pre-emergence (Table B2); details: after 14 days
[9] = system: IPOHE (Ipomoea hederacea); test: Comparative test, pre-emergence (Table B2); details: after 14 days

Compound | percentage damage caused to the plant, PRE Application AMAPA [1] | percentage damage caused to the plant, POST Application AMARE [2] | percentage damage caused to the plant, PRE Application AMARE [2] | percentage damage caused to the plant, POST Application ECHCG [3] | percentage damage caused to the plant, PRE Application ECHCG [3] | percentage damage caused to the plant, POST Application IPOHE [4] | percentage damage caused to the plant, PRE Application IPOHE [4] | percentage damage caused to the plant, POST Application SETFA [5] | percentage damage caused to the plant, PRE Application SETFA [5] | damage to plant (100 = total damage; 0 = no damage), PRE Application AMARE ([6]; rate 31 g/ha) | damage to plant (100 = total damage; 0 = no damage), PRE Application AMARE ([6]; rate 130 g/ha) | damage to plant (100 = total damage; 0 = no damage), PRE Application ECHCG ([7]; rate 31 g/ha) | damage to plant (100 = total damage; 0 = no damage), PRE Application ECHCG ([7]; rate 130 g/ha) | damage to plant (100 = total damage; 0 = no damage), PRE Application SETFA ([8]; rate 31 g/ha) | damage to plant (100 = total damage; 0 = no damage), PRE Application SETFA ([8]; rate 130 g/ha) | damage to plant (100 = total damage; 0 = no damage), PRE Application IPOHE ([9]; rate 31 g/ha) | damage to plant (100 = total damage; 0 = no damage), PRE Application IPOHE ([9]; rate 130 g/ha) | percentage damage caused to the plant, POST Application AMAPA ([1]; post-emergence)
Cc1c(C(=O)Nc2nnnn2C)ccc(OC(F)(F)F)c1NS(C)(=O)=O [Compound 1.075] | 5 (5=80-100%) | 5 (5=80-100%) | 5 (5=80-100%) | 5 (5=80-100%) | 5 (5=80-100%) | 5 (5=80-100%) | 3 (3=40-59%) | 5 (5=80-100%) | 4 (4=60-79%) | 80 | 100 | 60 | 90 | 30 | 60 | 40 | 50 | –
CCS(=O)(=O)Nc1c(OC(F)(F)F)ccc(C(=O)Nc2nnnn2C)c1C [Compound 1.081] | 5 (5=80-100%) | 5 (5=80-100%) | 5 (5=80-100%) | 5 (5=80-100%) | 5 (5=80-100%) | 5 (5=80-100%) | 3 (3=40-59%) | 5 (5=80-100%) | 5 (5=80-100%) | 90 | 100 | 60 | 90 | 20 | 80 | 40 | 50 | 5 (5=80-100%)

Source: patent publication US12715849B2, “Herbicidal tetrazole compounds” (SYNGENTA CROP PROTECTION AG, priority 2020, dated 2026)
